Data: paper PMC11124413, “Synthesis, Antibacterial Effects, and Toxicity of Licochalcone C” (Pharmaceuticals, 2024)
In brackets after ≈: the same amount, converted by molar mass.

Columns and labels:
[1] = system: S. sanguinis (ATCC 10556); assay: MIC, broth microdilution with resazurin; type: cell-based; conditions: ATCC10556; Streptococcus sanguinis; mean of triplicates
[2] = system: S. sobrinus (ATCC 33478); assay: MIC, broth microdilution with resazurin; type: cell-based; conditions: ATCC33478; Streptococcus sobrinus; mean of triplicates
[3] = system: S. mutans (ATCC 25175); assay: MIC, broth microdilution with resazurin; type: cell-based; conditions: ATCC25175; Streptococcus mutans; mean of triplicates
[4] = system: Galleria mellonella larvae; assay: Systemic toxicity in Galleria mellonella larvae; type: in vivo; conditions: 100% DMSO; after 40 h
Procedure: The systemic toxicity assay was performed to evaluate the acute toxic effects of LCC, following the procedures described by Megaw [63]. For the experiment, 10 healthy larvae from G. mellonella were randomly selected for each concentration test, with a weight range between 0.2 g and 0.3 g and without melanization aspects. The larvae were chilled on ice for 20 min and had their prolegs cleaned with 70% ethanol. […] Five microliters of the solution were injected into the hemocoel of each larva through the last left proleg using a 25 µL Hamilton syringe. After the administration, the larvae were incubated at 37 °C and their survival was monitored in selected intervals over 72 h. The larvae unable to move when touched and showing elevated levels of melanization were counted as dead. Experiments were performed in triplicate.

[5] = system: Gram-negative strains; set-up: method as in PMID 20160051; conditions: without efflux pump inhibitor (EPI); cited from earlier work
[6] = system: M. tuberculosis (ATCC 27294); assay: Antimycobacterial MIC, resazurin microtiter assay; type: cell-based; conditions: ATCC27294; Mycobacterium tuberculosis; mean of triplicates
[7] = system: M. avium (ATCC 25291); assay: Antimycobacterial MIC, resazurin microtiter assay; type: cell-based; conditions: ATCC25291; Mycobacterium avium; mean of triplicates
[8] = system: M. kansasii (ATCC 12478); assay: Antimycobacterial MIC, resazurin microtiter assay; type: cell-based; conditions: ATCC12478; Mycobacterium kansasii; mean of triplicates

[H]/N=C(\N/C(=N/[H])NCCCCCCNC(=N)NC(=N)Nc1ccc(Cl)cc1)Nc1ccc(Cl)cc1 [Chlorhexidine, chlorhexidine, reference compound]
MIC [1]: 1.8 µg/mL (≈ 3.56 µM) | MIC [2]: 3.6 µg/mL (≈ 7.12 µM) | MIC [3]: 0.4 µg/mL (≈ 0.791 µM)

C[S+](C)[O-] [DMSO, dimethyl sulfoxide, reference compound]
lethality to larvae [4]: total lethality

CC(C)=CCc1c(O)ccc(C(=O)/C=C/c2ccc(O)cc2)c1O [IBC, isobavachalcone]
antibacterial activity [5]: weakly active

NNC(=O)c1ccncc1 [Isoniazid, reference compound]
MIC [6]: 0.5 µg/mL (≈ 3.65 µM) | MIC [7]: > 1 µg/mL | MIC [8]: 1 µg/mL (≈ 7.29 µM)
